{"source": "paper PMC3434217", "about": "“Specificity Determinants of the Silkworm Moth Sex Pheromone” (PLoS ONE, 2012)", "assay_type_in_all_cases": "cell-based", "key": {"BmorOR1 [1]": {"molecular_target": "T1, BmorOR1 (Bombyx mori, UniProt Q5WA61)", "T1 construct": "gene BmOR-1; full-length; with BmorOrco", "T1 sequence (Q5WA61 1-430)": "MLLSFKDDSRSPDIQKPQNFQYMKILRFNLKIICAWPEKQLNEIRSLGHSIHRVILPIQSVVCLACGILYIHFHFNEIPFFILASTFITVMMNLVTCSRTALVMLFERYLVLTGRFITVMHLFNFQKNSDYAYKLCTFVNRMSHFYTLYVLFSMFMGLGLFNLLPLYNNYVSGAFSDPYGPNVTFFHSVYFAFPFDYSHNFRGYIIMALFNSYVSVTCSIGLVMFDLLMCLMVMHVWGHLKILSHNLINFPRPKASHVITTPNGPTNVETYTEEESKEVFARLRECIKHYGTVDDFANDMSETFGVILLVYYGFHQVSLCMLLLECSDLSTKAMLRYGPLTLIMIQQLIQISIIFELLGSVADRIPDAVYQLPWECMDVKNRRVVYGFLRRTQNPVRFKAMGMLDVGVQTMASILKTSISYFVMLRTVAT", "T1 sequence (Q7YT34 1-472 partner)": "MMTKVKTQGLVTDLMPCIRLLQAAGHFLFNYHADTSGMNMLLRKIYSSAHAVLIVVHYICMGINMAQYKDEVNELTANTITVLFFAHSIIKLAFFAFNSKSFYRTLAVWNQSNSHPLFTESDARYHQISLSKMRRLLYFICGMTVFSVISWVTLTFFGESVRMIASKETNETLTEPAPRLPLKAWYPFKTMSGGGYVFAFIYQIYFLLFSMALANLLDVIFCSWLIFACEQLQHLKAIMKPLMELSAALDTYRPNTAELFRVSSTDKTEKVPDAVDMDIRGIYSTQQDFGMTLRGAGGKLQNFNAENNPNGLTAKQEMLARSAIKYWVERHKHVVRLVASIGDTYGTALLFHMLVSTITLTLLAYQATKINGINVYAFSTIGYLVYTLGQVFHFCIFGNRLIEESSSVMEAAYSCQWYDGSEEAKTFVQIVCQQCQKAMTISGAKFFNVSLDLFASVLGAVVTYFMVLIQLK", "assay": "two-electrode voltage clamp in Xenopus oocytes expressing BmorOR1 and BmorOrco (injection, source dose)"}, "BmorOR1 [2]": {"molecular_target": "T1, BmorOR1", "assay": "two-electrode voltage clamp in Xenopus oocytes expressing BmorOR1 and BmorOrco (perfusion)"}, "BmorOR1 [3]": {"molecular_target": "T1, BmorOR1", "assay": "two-electrode voltage clamp in Xenopus oocytes expressing BmorOR1 and BmorOrco, dose-response"}}, "note": "pEC50: −log10 of the molar value.", "data": [{"smiles": "CCC/C=C\\C=C\\CCCCCCCCC=O", "note": "[bombykal]", "values": [{"measurement": "pEC50", "setting": "BmorOR1 [1]", "result": 5.02}]}, {"smiles": "CCC/C=C\\C=C\\CCCCCCCCCO", "note": "[compound 1, (10E,12Z)-hexadecadien-1-ol]", "values": [{"measurement": "pEC50", "setting": "BmorOR1 [2]", "result": 7.34}]}, {"smiles": "CCC/C=C\\C=C\\CCCCC#CCCCO", "note": "[compound 10]", "values": [{"measurement": "pEC50", "setting": "BmorOR1 [3]", "result": 4.77}]}, {"smiles": "CCC/C=C\\C=C\\CCCC/C=C\\CCCO", "note": "[compound 11, (4Z,10E,12Z)-hexadecatrien-1-ol]", "values": [{"measurement": "pEC50", "setting": "BmorOR1 [3]", "result": 4.89}]}]}
